The target in test [1] is T1, human PI3Kα protein (Homo sapiens, UniProt P42336).
T1 construct: purchased Carna Biosciences, Inc; host or cells: baculovirus expression system
Briefly: PI3Kα enzyme assay (ADP-Glo). Format: biochemical. Conditions: read-out: PI3Kα enzyme inhibitory activity. The gist of the method: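 Biotinylated human PI3Kα (baculovirus-expressed, 4.5 nmol/L) pre-incubated 15 min with compound in Tris-HCl pH 7.5, MgCl2, BSA; reaction 60 min at 25° C with 50 μmol/L PIP2 and 100 μmol/L ATP final. ADP quantified by ADP-Glo luminescence; IC50 calculated.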
For orientation: ADP-Glo first removes unused ATP, then detects ADP through luciferase.

The test system of test [2] is CHO-K1 cells. Briefly: CHO cell toxicity test. It is filed as cell-based, Chinese hamster. Particulars: Cricetulus griseus, read-out: IC50 value (concentration at which the number of viable cells was suppressed to 50% or less). The gist of the method: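 CHO-K1 cells were cultured 24 h, then exposed 24 h to compound at final 25.00 to 0.20 μmol/L in F-12 with 2% FCS. Viability read by CellTiter-Glo luminescence; inhibition % = 100 − (treated/untreated signal)×100.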

In test [3] the target is T2, GST fusion human ERK2 protein (Homo sapiens, UniProt P28482).
T2 construct: purchased Carna Biosciences, Inc; host or cells: E. coli expression system
T2 sequence (P28482 whole entry, the tested form may be a part): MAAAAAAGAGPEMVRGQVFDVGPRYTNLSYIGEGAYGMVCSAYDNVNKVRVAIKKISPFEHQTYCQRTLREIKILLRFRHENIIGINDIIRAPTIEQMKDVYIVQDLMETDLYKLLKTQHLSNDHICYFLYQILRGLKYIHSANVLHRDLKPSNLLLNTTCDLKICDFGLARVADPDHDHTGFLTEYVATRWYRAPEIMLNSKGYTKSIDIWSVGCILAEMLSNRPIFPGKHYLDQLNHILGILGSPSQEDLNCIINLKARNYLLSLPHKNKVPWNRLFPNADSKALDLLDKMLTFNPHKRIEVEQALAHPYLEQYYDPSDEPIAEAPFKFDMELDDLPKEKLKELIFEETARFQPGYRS
Briefly: ERK2 enzyme assay (1). It is filed as biochemical. Conditions: read-out: ERK2 enzyme inhibitory activity (1). The gist of the method:
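IC50 derived from the proportion of phosphorylated 5-FAM peptide, separated from unphosphorylated peptide by microfluidic mobility shift. Compound was first preincubated 15 min at room temperature with 2.5 nmol/L kinase at pH 7.5, then 43.1 μmol/L ATP plus 4.25 μmol/L substrate reacted 120 min at 25 °C.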

For test [4], the target named is T2, GST fusion human ERK2 protein. Briefly: ERK2 enzyme assay (2). It is filed as biochemical. Conditions: read-out: ERK2 enzyme inhibitory activity (2). The gist of the method:
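IC50 values come from mobility-shift measurement of phosphorylated versus unphosphorylated 5-FAM peptide substrate after EDTA quench. Beforehand, compound and 1.25 nmol/L E. coli-expressed GST–human ERK2 stood 15 min at room temperature (pH 7.5), then 1 mmol/L ATP and 4.25 μmol/L substrate (final) were added for 120 min at 25 °C.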

Setting [5] is: 4.5 nmol/L PI3Kα, PIP2 50 μmol/L, ATP 100 μmol/L.
Where [6] appears, read: CHO-K1 cells, 24 hours culture with compound, CellTiter-Glo.
[7] abbreviates: 2.5 nmol/L ERK2, ATP 43.1 μmol/L.

Read-outs that look alike come from different tables or passages of the source.

T1 sequence (P42336 whole entry): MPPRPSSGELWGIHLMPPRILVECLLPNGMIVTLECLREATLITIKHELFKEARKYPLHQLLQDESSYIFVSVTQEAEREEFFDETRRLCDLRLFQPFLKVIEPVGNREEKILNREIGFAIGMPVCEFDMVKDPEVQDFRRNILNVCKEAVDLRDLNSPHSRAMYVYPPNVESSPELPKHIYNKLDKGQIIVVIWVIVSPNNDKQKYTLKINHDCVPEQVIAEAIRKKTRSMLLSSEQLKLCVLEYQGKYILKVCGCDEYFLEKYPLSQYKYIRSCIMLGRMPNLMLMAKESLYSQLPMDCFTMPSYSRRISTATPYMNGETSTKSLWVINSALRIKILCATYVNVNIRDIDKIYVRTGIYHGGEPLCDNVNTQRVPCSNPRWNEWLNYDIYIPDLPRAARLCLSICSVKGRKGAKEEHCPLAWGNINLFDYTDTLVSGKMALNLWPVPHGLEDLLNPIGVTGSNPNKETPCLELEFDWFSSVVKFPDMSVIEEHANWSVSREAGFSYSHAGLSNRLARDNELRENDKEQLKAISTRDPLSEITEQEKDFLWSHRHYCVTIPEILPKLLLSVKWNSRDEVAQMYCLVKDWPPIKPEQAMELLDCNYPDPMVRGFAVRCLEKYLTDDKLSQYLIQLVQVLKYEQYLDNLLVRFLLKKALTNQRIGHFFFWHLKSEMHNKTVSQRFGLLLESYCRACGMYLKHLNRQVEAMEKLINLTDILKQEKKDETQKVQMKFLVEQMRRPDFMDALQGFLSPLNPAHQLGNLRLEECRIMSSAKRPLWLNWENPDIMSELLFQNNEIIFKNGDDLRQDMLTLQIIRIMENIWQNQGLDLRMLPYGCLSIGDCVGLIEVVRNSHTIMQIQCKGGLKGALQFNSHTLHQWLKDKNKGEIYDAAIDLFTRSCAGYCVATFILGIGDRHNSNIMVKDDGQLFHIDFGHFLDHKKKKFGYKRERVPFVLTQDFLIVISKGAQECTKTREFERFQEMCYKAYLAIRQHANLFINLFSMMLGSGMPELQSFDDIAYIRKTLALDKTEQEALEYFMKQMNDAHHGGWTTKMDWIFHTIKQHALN
T1 sequence (P27986 whole entry partner): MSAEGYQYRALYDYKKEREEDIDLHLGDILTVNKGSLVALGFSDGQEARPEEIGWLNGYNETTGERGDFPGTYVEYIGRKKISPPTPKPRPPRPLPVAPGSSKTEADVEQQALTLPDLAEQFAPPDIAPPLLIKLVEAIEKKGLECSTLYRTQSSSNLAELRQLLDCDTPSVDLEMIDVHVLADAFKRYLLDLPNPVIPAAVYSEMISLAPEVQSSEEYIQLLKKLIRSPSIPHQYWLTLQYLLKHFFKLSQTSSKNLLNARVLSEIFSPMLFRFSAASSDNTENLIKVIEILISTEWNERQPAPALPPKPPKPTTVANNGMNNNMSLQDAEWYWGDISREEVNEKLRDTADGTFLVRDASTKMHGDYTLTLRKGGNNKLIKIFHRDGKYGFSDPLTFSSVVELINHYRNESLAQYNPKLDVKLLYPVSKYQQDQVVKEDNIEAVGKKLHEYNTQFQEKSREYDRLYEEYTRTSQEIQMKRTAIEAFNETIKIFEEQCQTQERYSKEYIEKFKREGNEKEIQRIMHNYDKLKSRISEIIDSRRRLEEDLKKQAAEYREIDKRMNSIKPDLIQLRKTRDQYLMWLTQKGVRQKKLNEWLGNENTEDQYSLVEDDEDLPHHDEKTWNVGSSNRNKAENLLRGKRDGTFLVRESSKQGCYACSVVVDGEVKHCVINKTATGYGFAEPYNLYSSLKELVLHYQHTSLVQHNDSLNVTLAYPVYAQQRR

For `c1nnc(Nc2ccc3ncc(-c4cnn(CCCN5CCOCC5)c4)cc3n2)s1` [Example 0001, N-(7-(1-(3-morpholinopropyl)-1H-pyrazol-4-yl)-1,5-naphthyridin-2-yl)-1,3,4-thiadiazole-2-amine], the IC50 was < 1000 nM in test [1] (setting [5]), ≥ 25000 nM in test [2] (setting [6]) and < 1000 nM in test [3] (setting [7]).
`c1nc2ccc(Nc3cc(C4CCOC4)cnn3)nc2cc1-c1cnn(CCCN2CCCC2)c1` (stereo not drawn) [Example 0019, 7-(1-(3-(Pyrrolidin-1-yl)propyl)-1H-pyrazol-4-yl)-N-(5-(tetrahydrofuran-3-yl)pyridazin-3-yl)-1,5-naphthyridine-2-amine]: the IC50 in test [1] (setting [5]) was < 1000 nM; in test [2] (setting [6]) it was ≥ 25000 nM; in test [3] (setting [7]) it was < 1000 nM.
For `Cn1cc(-c2cnc3ccc(Nc4cccnn4)nc3c2)cn1` [Example 0037], the IC50 in test [1] (setting [5]) is 1000 to 10000 nM; in test [2] (setting [6]), ≥ 25000 nM; in test [3] (setting [7]) it was < 1000 nM.
Take `OCCOc1cncc(Nc2cnc3ccc(Nc4nnc(C5CCCC5)s4)nc3c2)c1` [Example 0097]: the IC50 is < 1000 nM in test [1] (setting [5]), ≥ 25000 nM in test [2] (setting [6]) and < 1000 nM in test [3] (setting [7]).
As to `c1csc(Nc2ccc3ncc(-c4cnn(CCCN5CCCC5)c4)cc3n2)n1` [Example 0128], the IC50 in test [1] (setting [5]) is < 1000 nM; in test [2] (setting [6]), ≥ 25000 nM; in test [3] (setting [7]), < 1000 nM.
Take `O=S(=O)(Nc1nnc(Nc2ccc3ncc(-c4cnn(CCN5CCOCC5)c4)cc3n2)s1)c1ccccc1` [Example 0179, N-(5-((7-(1-(2-morpholinoethyl)-1H-pyrazol-4-yl)-1,5-naphthyridin-2-yl)amino)-1,3,4-thiadiazol-2-yl)benzene sulfonamide]: the IC50 in test [1] (setting [5]) was < 1000 nM; in test [2] (setting [6]), ≥ 25000 nM; in test [3] (setting [7]) it was < 1000 nM.
Turning to `c1n[nH]cc1Nc1cnc2ccc(Nc3nnc(C4CCC4)s3)nc2c1` [Example 0222, N^2-(5-cyclobutyl-1,3,4-thiadiazol-2-yl)-N^7-(1H-pyrazol-4-yl)-1,5-naphthyridine-2,7-diamine], the IC50 in test [1] is < 1000 nM; in test [2] (setting [6]) it was ≥ 25000 nM; in test [3] (ERK2 enzyme assay (1)) it was < 1000 nM.
In the case of `Cn1cc(-c2cnc3ccc(Nc4nnc([C@@H]5CCCO5)s4)nc3c2)cn1` [Example 0231], the IC50 in test [1] was < 1000 nM; in test [2] (setting [6]), ≥ 25000 nM; in test [3] (ERK2 enzyme assay (1)), < 1000 nM.
Regarding `Cn1cc(-c2cnc3ccc(Nc4nnc([C@H]5CCCO5)s4)nc3c2)cn1` [Example 0232], the IC50 is < 1000 nM in test [1], ≥ 25000 nM in test [2] (setting [6]) and < 1000 nM in test [3] (ERK2 enzyme assay (1)).
Take `c1nc2ccc(Nc3nnc([C@@H]4CCCO4)s3)nc2cc1-c1cnn(CCCN2CCCC2)c1` [Example 0233]: the IC50 in test [1] was < 1000 nM; in test [2] (setting [6]), ≥ 25000 nM; in test [3] (ERK2 enzyme assay (1)), < 1000 nM.
In the case of `c1nc2ccc(Nc3nnc([C@H]4CCCO4)s3)nc2cc1-c1cnn(CCCN2CCCC2)c1` [Example 0237], the IC50 in test [1] was < 1000 nM; in test [2] (setting [6]) it was ≥ 25000 nM; in test [3] (ERK2 enzyme assay (1)), < 1000 nM.
As for `c1nc2ccc(Nc3nnc(C4CCOC4)s3)nc2cc1-c1cnn(CCCN2CCCC2)c1` (stereo not drawn) [Example 0238], the IC50 in test [1] was < 1000 nM; in test [2] (setting [6]), ≥ 25000 nM; in test [3] (ERK2 enzyme assay (1)), < 1000 nM.
For the compound `c1nc2ccc(Nc3nnc(C4CCOCC4)s3)nc2cc1-c1cnn(CCCN2CCCC2)c1` [Example 0245], the IC50 was < 1000 nM in test [1], ≥ 25000 nM in test [2] (setting [6]) and < 1000 nM in test [3] (ERK2 enzyme assay (1)).
As for `c1nc2ccc(Nc3cc(C4CC4)cnn3)nc2cc1-c1cnn(CCCN2CCOCC2)c1` [Example 0298, N-(5-cyclopropylpyridazin-3-yl)-7-(1-(3-morpholinopropyl)-1H-pyrazol-4-yl)-1,5-naphthyridine-2-amine], the IC50 in test [1] was < 1000 nM; in test [2] (setting [6]) it was ≥ 25000 nM; in test [3] (ERK2 enzyme assay (1)), < 1000 nM.
In the case of `CN(C)CCCn1cc(-c2cnc3ccc(Nc4nncs4)nc3c2)cn1` [Example 0301], the results for the IC50 in test [1], in test [2] (setting [6]) and in test [3] (ERK2 enzyme assay (1)) were < 1000 nM, ≥ 25000 nM and < 1000 nM, respectively.
Take `Cc1nnc(Nc2ccc3ncc(-c4cnn(CCCN(C)C)c4)cc3n2)s1` [Example 0302]: the IC50 is < 1000 nM in test [1], ≥ 25000 nM in test [2] (setting [6]) and < 1000 nM in test [3] (ERK2 enzyme assay (1)).
`c1nc2ccc(Nc3nnc(C4CCCO4)s3)nc2cc1-c1cnn(CCCN2CCCC2)c1` (stereo not drawn) [Example 0325, N-(7-(1-(3-(pyrrolidin-1-yl)propyl)-1H-pyrazol-4-yl)-1,5-naphthyridin-2-yl)-5-(tetrahydrofuran-2-yl)-1,3,4-thiadiazole-2-amine]: the results for the IC50 in test [1], in test [2] (setting [6]) and in test [3] (ERK2 enzyme assay (1)) were < 1000 nM, ≥ 25000 nM and < 1000 nM, respectively.
As to `c1nc2ccc(Nc3nnc(C4CC4)s3)nc2cc1-c1cnn(CCCN2CCCC2)c1` [Example 0362], the results for the IC50 in test [1], in test [2] (setting [6]) and in test [3] (ERK2 enzyme assay (1)) were < 1000 nM, ≥ 25000 nM and < 1000 nM, respectively.
Turning to `CCc1nnc(Nc2ccc3ncc(-c4cnn(CCCN5CCCC5)c4)cc3n2)s1` [Example 0363], the values for the IC50 in test [1], in test [2] (setting [6]) and in test [3] (ERK2 enzyme assay (1)) were < 1000 nM, ≥ 25000 nM and < 1000 nM, respectively.
For the compound `CC(C)c1cnnc(Nc2ccc3ncc(-c4cnn(CCCN5CCCCC5)c4)cc3n2)c1` [Example 0373, N-(5-isopropylpyridazin-3-yl)-7-(1-(3-(piperidin-1-yl)propyl)-1H-pyrazol-4-yl)-1,5-naphthyridine-2-amine], the IC50 was < 1000 nM in test [1], ≥ 25000 nM in test [2] (setting [6]) and < 1000 nM in test [3] (ERK2 enzyme assay (1)).
On to `CCN(CC)CCCn1cc(-c2cnc3ccc(Nc4cc(C(C)C)cnn4)nc3c2)cn1` [Example 0374, 7-(1-(3-(Diethylamino)propyl)-1H-pyrazol-4-yl)-N-(5-isopropylpyridazin-3-yl)-1,5-naphthyridine-2-amine], for which the IC50 in test [1] was < 1000 nM; in test [2] (setting [6]) it was ≥ 25000 nM; in test [3] (ERK2 enzyme assay (1)), < 1000 nM.
Turning to `CCCc1nn(CCCN2CCOCC2)cc1-c1cnc2ccc(Nc3cc(C(C)C)cnn3)nc2c1` [Example 0390, N-(5-isopropylpyridazin-3-yl)-7-(1-(3-morpholinopropyl)-3-propyl-1H-pyrazol-4-yl)-1,5-naphthyridine-2-amine], the IC50 in test [1] is < 1000 nM; in test [2] (setting [6]) it was ≥ 25000 nM; in test [3] (ERK2 enzyme assay (1)) it was < 1000 nM.
For `CC(C)c1cnnc(Nc2ccc3ncc(-c4cnn(CCOC5CCOCC5)c4)cc3n2)c1` [Example 0395], the IC50 was < 1000 nM in test [1], ≥ 25000 nM in test [2] (setting [6]) and < 1000 nM in test [3] (ERK2 enzyme assay (1)).
In the case of `CC(C)c1cnnc(Nc2ccc3ncc(-c4cnn(CCC(O)C(F)(F)F)c4)cc3n2)c1` (stereo not drawn) [Example 0400], the results for the IC50 in test [1], in test [2] (setting [6]) and in test [3] (ERK2 enzyme assay (1)) were < 1000 nM, ≥ 25000 nM and < 1000 nM, respectively.
Consider `CC(C)(CO)c1cnnc(Nc2ccc3ncc(-c4cnn(CCCN5CCCC5)c4)cc3n2)c1` [Example 0405, 2-methyl-2-(6-((7-(1-(3-(pyrrolidin-1-yl)propyl)-1H-pyrazol-4-yl)-1,5-naphthyridin-2-yl)amino)pyridazin-4-yl)propan-1-ol], for which the IC50 in test [1] is < 1000 nM; in test [2] (setting [6]), ≥ 25000 nM; in test [3] (ERK2 enzyme assay (1)), < 1000 nM.
With `CC(C)c1cnnc(Nc2ccc3ncc(-c4ccncc4)cc3n2)c1` [Example 0406], the IC50 in test [1] is < 1000 nM; in test [2] (setting [6]) it was ≥ 25000 nM; in test [3] (ERK2 enzyme assay (1)), < 1000 nM.
On to `CC(C)c1cnnc(Nc2ccc3ncc(-c4cn(C)nc4CC4CC4)cc3n2)c1` [Example 0781], for which the IC50 in test [4] (ERK2 enzyme assay (2)) is < 1000 nM; in test [1], < 1000 nM; in test [2] (CHO-K1, 24 h), ≥ 25000 nM.
On to `CC(=O)c1ccc(Cn2cc(-c3cnc4ccc(Nc5cc(C(C)C)cnn5)nc4c3)cn2)cc1` [Example 0795], for which the IC50 is < 1000 nM in test [4] (ERK2 enzyme assay (2)), < 1000 nM in test [1] and ≥ 25000 nM in test [2] (setting [6]).
As for `COC1CN(CC(Cn2cc(-c3cnc4ccc(Nc5cc(C(C)C)cnn5)nc4c3)cn2)OC)C1` (stereo not drawn) [Example 0812, N-(5-isopropylpyridazin-3-yl)-7-(1-(2-methoxy-3-(3-methoxyazetidin-1-yl)propyl)-1H-pyrazol-4-yl)-1,5-naphthyridine-2-amine], the IC50 in test [4] (ERK2 enzyme assay (2)) was < 1000 nM; in test [1], < 1000 nM; in test [2] (setting [6]) it was ≥ 25000 nM.
Take `CCCc1cnnc(Nc2ccc3ncc(-c4cn(C)nc4C)cc3n2)c1` [Example 0919]: the results for the IC50 in test [4], in test [1] and in test [2] (setting [6]) were < 1000 nM, < 1000 nM and ≥ 25000 nM, respectively.

Source of the values: US9783536B2, “Nitrogen-containing heterocyclic compound or salt thereof” (FUJIFILM Corporation, priority 2013, dated 2017).
